We go through nine molecules from patent US20040044007A1, “Indoline derivatives” (H. Lundbeck A/S, priority 2000, published 2004).

One data set deals with T1, 5-HT2A receptors (Rattus norvegicus, UniProt P14842).
T1 construct: membranes from rat brain (cortex) in vitro; from tissue; host or cells: rat brain cortex membranes
The data set is described as follows: Inhibition of the binding of [3H]Ketanserin to 5-HT2A receptors. The conditions noted are these: [3H]Ketanserin 0.50 nM, membranes from rat brain (cortex); read-out: IC50 (nM) at the 5HT2A-receptor. As for the experimental part: Inhibition of the Binding of [^3H]Ketanserin to 5-HT2A Receptors
The compounds were tested with respect to their affinity for 5-HT2A receptors by determining their ability to inhibit binding of [^3H]Ketanserin (0.50 nM) to membranes from rat brain (cortex) in vitro. Method described in Sanchez et al. Drug Dev. Res. 1991, 22, 239-250.

The target in data set [1] is T2, human cloned dopamine D4.2 receptors (Homo sapiens, UniProt P21917, DEL265-296).
T2 construct: expressed in transfected cells; host or cells: CHO cells
T2 sequence (P21917 with tags, fused parts or gaps DEL265-296): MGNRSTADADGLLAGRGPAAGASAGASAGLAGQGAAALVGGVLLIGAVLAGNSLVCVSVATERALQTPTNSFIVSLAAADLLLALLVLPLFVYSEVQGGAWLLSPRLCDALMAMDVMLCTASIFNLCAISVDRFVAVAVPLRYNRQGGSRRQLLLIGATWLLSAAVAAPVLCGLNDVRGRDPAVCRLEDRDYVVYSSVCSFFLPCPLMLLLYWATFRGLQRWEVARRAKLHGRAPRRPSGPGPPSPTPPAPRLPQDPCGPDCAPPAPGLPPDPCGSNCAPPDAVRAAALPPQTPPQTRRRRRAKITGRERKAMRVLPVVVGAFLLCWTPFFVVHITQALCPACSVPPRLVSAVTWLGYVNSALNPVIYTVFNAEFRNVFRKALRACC
Kind of data set: Inhibition of the binding of [3H]YM-09151-2 to D4.2 receptors. To be noted: [3H]YM-09151-2 0.06 nM; for % inhib. at the D4-receptor: % inhibition of binding at 50 nM; for IC50: membranes of CHO-cells, read-out: IC50 (nM) at the D4-receptor. An excerpt: The method is modified from NEN Life Science Products, Inc., technical data certificate PC2533-10/96.

Another data set addresses T3, D4 receptor (Homo sapiens, UniProt P21917).
T3 sequence (P21917 1-419): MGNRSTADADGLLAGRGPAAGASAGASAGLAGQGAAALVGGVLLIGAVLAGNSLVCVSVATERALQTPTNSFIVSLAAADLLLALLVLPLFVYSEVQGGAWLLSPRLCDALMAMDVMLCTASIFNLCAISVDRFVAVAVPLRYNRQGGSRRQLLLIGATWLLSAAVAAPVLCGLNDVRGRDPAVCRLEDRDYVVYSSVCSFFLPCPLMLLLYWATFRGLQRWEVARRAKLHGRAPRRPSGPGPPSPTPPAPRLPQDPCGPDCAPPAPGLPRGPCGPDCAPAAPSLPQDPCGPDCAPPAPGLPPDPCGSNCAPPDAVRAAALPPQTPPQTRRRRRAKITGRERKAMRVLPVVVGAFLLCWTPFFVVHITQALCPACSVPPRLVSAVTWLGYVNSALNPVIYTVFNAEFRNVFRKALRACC
To be noted: various in vitro efficacy assays (Gazi et al.); cited from earlier work.

The structures appear in SMILES notation. Structures can show the parent of a compound that is named as a salt.

T1 sequence (P14842 whole entry): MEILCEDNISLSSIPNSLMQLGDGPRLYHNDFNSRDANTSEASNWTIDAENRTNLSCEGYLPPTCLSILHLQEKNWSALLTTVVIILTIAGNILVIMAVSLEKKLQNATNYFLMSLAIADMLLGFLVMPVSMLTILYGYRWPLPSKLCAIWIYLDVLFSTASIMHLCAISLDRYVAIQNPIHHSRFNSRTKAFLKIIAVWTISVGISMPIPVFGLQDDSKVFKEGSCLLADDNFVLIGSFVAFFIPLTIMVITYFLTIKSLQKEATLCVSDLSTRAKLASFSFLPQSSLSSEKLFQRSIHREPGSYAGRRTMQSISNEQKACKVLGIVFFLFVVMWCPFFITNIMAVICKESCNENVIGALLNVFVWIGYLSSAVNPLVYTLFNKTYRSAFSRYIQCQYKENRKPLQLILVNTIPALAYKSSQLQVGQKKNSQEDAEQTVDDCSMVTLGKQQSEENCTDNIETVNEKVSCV

As for `CC(=O)N1CC(CCN2CCN(c3ccc(Cl)c(Cl)c3)CC2)c2ccccc21` (single isomer, unassigned; (+)) (as salt: hydrochloride) [Compound 1d, (+)-1-[2-(1-Acetyl-2,3-dihydro-1H-indol-3-yl)ethyl]-4-(3,4-dichlorophenyl)piperazine, hydrochloride], the melting point (in general, the temperature, or range, at which the solid turns liquid) lay within 184 to 186 °C.
As for `CC(=O)N1CC(CCN2CCN(c3ccc(C)c(C)c3)CC2)c2ccccc21.Cl` (single isomer, unassigned; (+)) [Compound 1a, (+)-1-[2-(1-Acetyl-2,3-dihydro-1H-indol-3-yl)ethyl]-4-(3,4-dimethylphenyl)piperazine, hydrochloride], the IC50 – broadly, the point on the concentration scale where inhibition reaches its midpoint – at 5-HT2A receptors worked out at 5 nM. In addition, in data set [1], the “% inhib. at the D4-receptor” value came out at 88% and the half-maximal inhibitory concentration (IC50) is < 50 nM.
Molecule `CC(=O)N1CC(CCN2CCN(c3ccc(C)cc3)CC2)c2ccccc21.Cl` (single isomer, unassigned; (+)) [Compound 1b, (+)-1-[2-(1-Acetyl-2,3-dihydro-1H-indol-3-yl)ethyl]-4-(4-methylphenyl)piperazine, hydrochloride] had a melting point of 217 to 220 °C. Further, the half-maximal inhibitory concentration (IC50) on 5-HT2A receptors stood at 15 nM. Also, in data set [1], the “% inhib. at the D4-receptor” value was 88% and the IC50 was < 50 nM.
The corresponding values for `CC(=O)N1CC(CCN2CCC(c3ccc(C)cc3)CC2)c2ccccc21` (single isomer, unassigned; (+)) [Compound 1c, (+)-1-[2-(1-Acetyl-2,3-dihydro-1H-indol-3-yl)ethyl]-4-(4-methylphenyl)piperidine] are 112 to 114 °C, 17 nM, 76% and < 50 nM.
As for `CC(=O)N1CC(CCN2CCN(c3ccc(Cl)c(Cl)c3)CC2)c2ccccc21` (single isomer, unassigned; (+)) [Compound 1d, (+)-1-[2-(1-Acetyl-2,3-dihydro-1H-indol-3-yl)ethyl]-4-(3,4-dichlorophenyl)piperazine, hydrochloride], on 5-HT2A receptors, the half-maximal inhibitory concentration (IC50) was determined as 21 nM. For the same molecule, in data set [1], the “% inhib. at the D4-receptor” value is reported as 86% and the half-inhibitory concentration (IC50) is < 50 nM.
In the case of `CC(=O)N1CC(CCN2CCN(c3ccc(Br)cc3)CC2)c2ccccc21` (stereo not drawn) [Compound 1e, (+)-]-[2-(1-Acetyl-2,3-dihydro-1H-indol-3-yl)ethyl]-4-(4-bromophenyl)piperazine, hydrochloride], the 50% inhibitory concentration (IC50) at 5-HT2A receptors came out at 17 nM. In data set [1], the “% inhib. at the D4-receptor” value was 95% and the 50% inhibitory concentration (IC50) is < 50 nM.
For `CC(=O)N1CC(CCN2CC=C(c3ccc(Cl)c(Cl)c3)CC2)c2ccccc21` (centres unmarked) [Compound 1f, ]-[2-(1-Acetyl-2,3-dihydro-1H-indol-3-yl)ethyl]-4-(3,4-dichlorophenyl)-3,6-dihydro-2H-pyridine, hydrochloride], the IC50 at 5-HT2A receptors worked out at 27 nM; in data set [1], 13 nM.
As for `CC(=O)N1CC(CCN2CCC(c3ccc(Cl)c(Cl)c3)CC2)c2ccccc21` (centres unmarked) [Compound 1g, 1-[2-(1-Acetyl-2.3-dihydro-1H-indol-3-yl)ethyl]-4-(3.4-dichlorophenyl)piperidine, hydrochloride], the half-maximal inhibitory concentration (IC50) at 5-HT2A receptors was determined as 21 nM; in data set [1] it was 5.4 nM.
Take `CC(C)Oc1cccnc1N(C)C1CCN(Cc2ccccc2)CC1` [Compound U-101958]: the “Functional activity at D4 receptor” value at D4 receptor is given as “partial D4 receptor agonists”.
